Series [1] deals with T1, HIV-1 RT-associated RNase H (Human immunodeficiency virus type 1 group M subtype B, UniProt P04585).
T1 construct: The 1:1 ratio between the p66/p51 subunits was also verified; His tag (implied only by Ni-NTA IMAC purification); made in house; host or cells: Escherichia coli M15
The series is described as follows: HIV-1 DNA polymerase-independent RNase H activity determination. Format: biochemical. Conditions: wt HIV-1 RT, three independent experiments, average ± standard deviation; for IC50: read-out: RNase H IC50. Here is the method: (§1) Escherichia coli strain M15 containing the p6HRT-prot vector (provided by Stuart Le Grice laboratory (NCI Frederick)) was grown to an optical density at 600 nm of 0.7 and induced with 1.7 mM of isopropyl β-D-1-thiogalactopyranoside (IPTG) for 4 h. Protein purification was carried out with a BioLogic LP system (Bio-Rad, Hercules, CA, USA) using a combination of immobilized metal affinity chromatography (IMAC) and ion exchange chromatography. Cell pellets were resuspended in lysis buffer (50 mM of sodium phosphate buffer, pH 7.8, containing 0.5 mg/mL of lysozyme), incubated on ice for 20 min, and, after the addition of NaCl to a final concentration of 0.3 M, were sonicated and centrifuged at 30,000 ×g for 1 h. The supernatant was loaded onto a Ni^2+-NTA-Sepharose column pre-equilibrated with loading buffer (50 mM of sodium phosphate buffer, pH 7.8, containing 0.3 M of NaCl, 10% glycerol, and 10 mM of imidazole) and washed thoroughly with wash buffer (50 mM of sodium phosphate buffer, pH 6.0, containing 0.3 M of NaCl, 10% glycerol, and 80 mM of imidazole). RT was eluted with an imidazole gradient in the wash buffer (0–0.5 M). Fractions were collected, and protein purity was checked by sodium dodecyl sulfate–polyacrylamide gel electrophoresis (SDS-PAGE) and found to be higher than 90%. The 1:1 ratio between the p66/p51 subunits was also verified. Enzyme-containing fractions were pooled and diluted 1:1 with 50 mM of sodium phosphate buffer, pH 7.0, containing 10% glycerol, and then loaded into a Hi-trap heparin HP GE (Healthcare LifeScience) pre-equilibrated with 10 column volumes of loading buffer (50 mM of sodium phosphate buffer, pH 7.0, containing 10% glycerol, and 150 mM of NaCl). The column was then washed with loading buffer, and the RT was eluted with Elute Buffer 2 (50 mM of sodium phosphate, pH 7.0, 10% glycerol, 1 M of NaCl). Fractions were collected, and the protein was dialyzed and stored in a buffer containing 50 mM of Tris-HCl, pH 7.0, 25 mM of NaCl, 1 mM of EDTA, and 50% glycerol. Catalytic activities and protein concentrations were determined. Enzyme-containing fractions were pooled, and aliquots were stored at −80°C.
HIV RT-associated RNase H activity was measured as described ([Corona et al., 2016b]) in a 100-µl reaction volume containing 50 mM of Tris-HCl buffer, pH 7.8, 6 mM of MgCl2, 1 mM of dithiothreitol (DTT), 80 mM of KCl, 0.25 µM of hybrid RNA/DNA 5′-[…]-Fluorescin-3′ (high-performance liquid chromatography (HPLC), dry, QC: Mass Check) (available from Metabion) 5′-Dabcyl-[…]-3′ (HPLC, dry, QC: Mass Check), increasing concentrations of inhibitors, whose dilution were made in water, and different amounts of enzymes according to a linear range of the dose–response curve. The reaction mixture was incubated for 1 h at 37°C and stopped by the addition of EDTA, and products were measured with a multilabel counter plate reader Victor 3 equipped with filters for 490/528 nm.

The target in a further series is T2, HIV-1 RT-associated RDDP (Human immunodeficiency virus type 1 group M subtype B, UniProt P04585).
T2 construct: The 1:1 ratio between the p66/p51 subunits was also verified; His tag (implied only by Ni-NTA IMAC purification); made in house; host or cells: Escherichia coli M15
Kind of series: HIV-1 RNA-dependent DNA polymerase activity determination. Format: biochemical. Conditions: wt HIV-1 RT; three independent experiments, average ± standard deviation; read-out: RDDP IC50. The protocol: as §1
RDDP activity was measured as previously reported in 25-µl volume containing 60 mM of Tris‐HCl buffer, pH 8.1, 8 mM of MgCl2, 60 mM of KCl, 13 mM of DTT, 2.5 µM of poly(A)-oligo(dT), 100 µM of dTTP, increasing concentrations of inhibitors, whose dilution were made in water, and different amounts of enzymes according to a linear range of the dose–response curve. The reaction mixture was incubated for 30 min at 37°C and then stopped by the addition of EDTA. Reaction products were detected by pico green addition and measured with a multilabel counter plate reader Victor 3, equipped with filters for 502/523 nm.

The test system of another series is HIV-1. The series is described as follows: HIV-1 replication inhibition in MT4 cells. It is filed as cell-based. As to conditions: Human immunodeficiency virus 1, MT4, viral replication in MT4 cells; three independent experiments, average ± standard deviation; read-out: HIV-1 EC50. Here is the method:
(§2) HIV-1 replication was carried out in MT4 cells as previously reported ([Corona et al., 2016a]) using a molecular clone derived from the pNL4-3 ([Thierry et al., 2015]). A total of 120 ng of p24^gag antigen per 10^6 cells, corresponding to a multiplicity of infection (m.o.i.) of 0.3, was used for infection. […] Flow cytometry analysis was performed on a FACSCalibur flow cytometer (BD Biosciences, San Jose, CA, USA), and the results were analyzed using the […] software.

A short description of series [2]: Viability of infected MT4 cells (cytotoxicity). Format: cell-based. As to conditions: human, MT4 cells infected with HIV-1; infected MT4 cells viability; three independent experiments, average ± standard deviation. Here is the method:
as §2

Results on 14 molecules are retold here after PMC10328743, “5-Nitro-3-(2-(4-phenylthiazol-2-yl)hydrazineylidene)indolin-2-one derivatives inhibit HIV-1 replication by a multitarget mechanism of action” (Frontiers in Cellular and Infection Microbiology, 2023).

SMILES strings stand for the structures.

What is called IC50 is the concentration that gives 50% inhibition. A word on the EC50: it is the concentration giving half of the maximal effect. Broadly, the CC50 is the concentration at which the toxic effect on the cells reaches its halfway point. A high value points to lower toxicity to the cells. `N#Cc1ccc(-c2csc(N/N=C3\C(=O)Nc4ccc(Cl)cc43)n2)cc1` [6b]: the values for the half-inhibitory concentration (IC50) (in series [1]; at HIV-1 RT-associated RDDP) were 7.8 ± 0.1 µM and 34 ± 6 µM, respectively. The EC50 in the series on HIV-1 is greater than 95 µM. The same molecule gave a cytotoxic concentration (CC50) in series [2] of 95 ± 5 µM.

With `Cn1c(-c2ccc(C#N)cc2)cs/c1=N\N=C1/C(=O)Nc2ccc([N+](=O)[O-])cc21` [6c], in series [1], the “RNase H IC50” value is reported as “active only toward the RDDP function” and the IC50 came out at 100 ± 5 µM. For the same molecule, at HIV-1 RT-associated RDDP, the half-inhibitory concentration (IC50) was found to be 12.1 ± 1.6 µM.

For the molecule `O=C1Nc2ccc([N+](=O)[O-])cc2/C1=N/Nc1nc(-c2ccc(F)cc2F)cs1` [7a], the IC50 was determined as 6 ± 0.1 µM in series [1] and 11.5 ± 0.5 µM on HIV-1 RT-associated RDDP.

On to `O=C1Nc2ccc(Cl)cc2/C1=N/Nc1nc(-c2ccc(F)cc2F)cs1` [7b], for which the IC50 came out at 6 ± 1.5 µM in series [1] and 10 ± 1 µM on HIV-1 RT-associated RDDP.

As for `O=C1Nc2ccc([N+](=O)[O-])cc2/C1=N/Nc1nc(-c2cccc([N+](=O)[O-])c2)cs1` [8a], the IC50 was 6.5 ± 0.5 µM in series [1] and 18.5 ± 0.5 µM at HIV-1 RT-associated RDDP.

As to `O=C1Nc2ccc(Cl)cc2/C1=N/Nc1nc(-c2cccc([N+](=O)[O-])c2)cs1` [8b], the results for the IC50 (in series [1]; on HIV-1 RT-associated RDDP) were 22 ± 1 µM and 72 ± 13 µM, respectively.

As to `Cn1c(-c2cccc([N+](=O)[O-])c2)cs/c1=N\N=C1/C(=O)Nc2ccc([N+](=O)[O-])cc21` [8c], in series [1], the “RNase H IC50” value is listed as “active only toward the RDDP function” and the half-maximal inhibitory concentration (IC50) stood at 100 ± 20 µM. Moreover, the IC50 on HIV-1 RT-associated RDDP was 8.7 ± 1.5 µM.

Turning to `O=C1Nc2ccc([N+](=O)[O-])cc2/C1=N/Nc1nc(-c2ccc(Cl)c(Cl)c2)cs1` [9a], the half-maximal inhibitory concentration (IC50) is 6.5 ± 0.5 µM in series [1] and 11.5 ± 0.5 µM on HIV-1 RT-associated RDDP. Besides, the EC50 with HIV-1 was greater than 100 µM. In series [2], this molecule showed a 50% cytotoxic concentration (CC50) greater than 100 µM.

Regarding `Cn1c(-c2ccc(Cl)c(Cl)c2)cs/c1=N\N=C1/C(=O)Nc2ccc([N+](=O)[O-])cc21` [9c], the half-inhibitory concentration (IC50) was found to be 1.9 ± 0.7 µM in series [1] and 15.1 ± 0.5 µM at HIV-1 RT-associated RDDP. Besides, in the series with HIV-1, the 50% effective concentration (EC50) was greater than 5 µM. In series [2], this molecule showed a CC50 of 5 ± 1.3 µM.

`Cc1ccc(-c2csc(NN=C3C(=O)Nc4ccc(Cl)cc43)n2)cc1` [10b]: the IC50 was 10 ± 1.4 µM in series [1] and 18 ± 0.7 µM on HIV-1 RT-associated RDDP. In addition, in the series with HIV-1, the EC50 was greater than 100 µM. For the same molecule, the CC50 in series [2] is greater than 100 µM.

With `Cc1ccc(-c2cs/c(=N\N=C3/C(=O)Nc4ccc([N+](=O)[O-])cc43)n2C)cc1` [10c], the IC50 in series [1] was 6.8 ± 1.4 µM; on HIV-1 RT-associated RDDP, 16.9 ± 2.3 µM. In addition, the EC50 with HIV-1 was greater than 10 µM. Moreover, the midpoint of cytotoxicity in series [2], the CC50, lay at 10 ± 2.7 µM.

As to `COc1ccc(-c2csc(N/N=C3\C(=O)Nc4ccc([N+](=O)[O-])cc43)n2)cc1` [11a], the IC50 in series [1] was determined as 8.5 ± 0.6 µM; at HIV-1 RT-associated RDDP, 14.5 ± 0.5 µM. Further, in the series on HIV-1, the EC50 is greater than 100 µM. The same molecule yielded a 50% cytotoxic concentration (CC50) in series [2] greater than 100 µM.

`COc1ccc(-c2csc(N/N=C3\C(=O)Nc4ccc(Cl)cc43)n2)cc1` [11b]: the IC50 in series [1] amounted to 7 ± 1 µM; on HIV-1 RT-associated RDDP, 16.2 ± 2.8 µM. Besides, the half-maximal effective concentration (EC50) in the series with HIV-1 is greater than 70 µM. The CC50 in series [2] came to 70 ± 9 µM.

For `COc1ccc(-c2cs/c(=N\N=C3/C(=O)Nc4ccc([N+](=O)[O-])cc43)n2C)cc1` [11c], the results for the IC50 (in series [1]; at HIV-1 RT-associated RDDP) were 4 ± 1.4 µM and 11.2 ± 2.2 µM, respectively. Further, the half-maximal effective concentration (EC50) with HIV-1 was greater than 2 µM. Half-maximal cytotoxicity in series [2] (CC50) was put at 2 ± 0.4 µM.
